From patent US8680081B2, “Prophylactic treatment of migraine” (priority 2000, dated 2014)

Legend:
[1] = Prophylactic treatment of migraine by regular administration, patient case reports; assay type: in vivo, human
Protocol: The method for prophylactic treatment includes regular administration of a therapeutically effective amount of a combination comprising a cyclooxygenase-2 inhibitor and acetylsalicylic acid or active derivative. Administration of the combination including a cyclooxygenase-2 inhibitor may include administration of one or more cyclooxygenase-2 inhibitors.
The combination is administered regularly, meaning that the combination is administered periodically or aperiodically over a period of several days or weeks, in an effort to prevent migraine attacks, and is not merely administered in response or reaction to migraine symptoms. Regular administration may include once-daily administration of each agent, administration on alternate days, or any other periodic or aperiodic schedule that is determined to be effective as a planned course of treatment for preventing migraine.
A patient with an established history of recurrent migraine was treated with a daily oral dose of 25 milligrams of VIOXX (rofecoxib tablets, Merck & Co, Inc., Whitehouse Station, N.J.). […]
A patient with an established history of recurrent migraine was treated with a daily oral dose of 200 milligrams of CELEBREX (celecoxib capsules, G.D. Searle & Co., Chicago, Ill.).
A patient with a well-established history of recurrent migraine attacks heralded by an aura of dysphasia (i.e., difficulty in finding words) begins taking 25-50 milligrams of rofecoxib at the onset of the dysphasic symptoms. […] Because they have lately suffered more than four migraine attacks per month, on the advice of their physician they continue daily dosing of 12.5-25 milligrams of rofecoxib over time. […]

[2] = Targeted prophylactic treatment of migraine before a time window, trigger or attack, patient case reports; assay type: in vivo, human
Excerpt: In another embodiment, the invention provides a method for targeted prophylactic treatment of a migraine condition. The method includes determining a time window or selected time period in which a patient desires to be free from migraine; and administering to the patient, at a time prior to the determined time window, a therapeutically effective amount of a cyclooxygenase-2 inhibitor, either alone or in combination with acetylsalicylic acid or active derivative, to prevent or reduce migraine symptoms during the time window.
Prior to the determined time window, a therapeutically effective amount of a cyclooxygenase-2 inhibitor is administered to the patient. By “prior,” it is meant that the administration is temporally before the determined time window, but sufficiently close in time so that the prophylactic effect of the cyclooxygenase-2 inhibitor is experienced throughout most or all of the determined time window.
A patient with an established history of migraine brought on by glare associated with an ophthalmic operating room microscope was treated with 6 milligrams of IMITREX by injection (Glaxo Wellcome Inc.), and an oral dose of 12.5 to 25 milligrams of VIOXX (Merck & Co, Inc.) the night before a scheduled ophthalmic operation.
(§1) A patient with an established history of migraine brought on by glare associated with repeated use of a slit lamp biomicroscope was treated with an oral dose of 12.5 to 25 milligrams of VIOXX (Merck & Co, Inc.) the night before a scheduled clinic.
as §1, with “Inc.) and 325 milligrams aspirin (over-the-counter aspirin tablets)” for “Inc.)”
(§2) A patient with an established history of migraine brought on by occasional consumption of red wine (as a beverage or in a sauce or dressing) was treated with an oral dose of 12.5 to 25 milligrams of VIOXX (Merck & Co, Inc.) on the same day as such consumption before migraine attack symptoms are evident.
as §2, with “Inc.) and 162.5 milligrams aspirin (over-the-counter aspirin tablets)” for “Inc.)”
(§3) A patient with a well-established history of recurrent migraine attacks learns to recognize their prodromal symptoms of altered mood, irritability, fatigue, and craving for sweets which typically occur 3 to 24 hours prior to the fully developed phase of their migraine. They learn over time that these prodromal symptoms eventually lead to a migraine attack in most cases. Their migraine attacks typically include unusual sensitivity to light and sound, difficulty concentrating, headache, and less commonly, nausea. As soon as they recognize the prodromal symptoms, they take a one-time dose of 25-50 milligrams of rofecoxib, followed by 12.5-25 milligrams of rofecoxib daily.
as §3, with “rofecoxib and 162.5-325 milligrams aspirin,” for “rofecoxib,”, “rofecoxib and 162.5-325 milligrams aspirin” for “rofecoxib”, “daily. […]” for “daily.”

[3] = Example 1, daily oral 25 milligrams VIOXX, treatment period three to four weeks

| Structure (SMILES) | intensity of the symptoms of a subsequent migraine ([1]; Example 4, daily oral 200 milligrams CELEBREX) | migraine symptoms ([1]; Example 4, daily oral 200 milligrams CELEBREX, treatment period ten to fourteen days) | migraine symptoms ([1]; Example 1, daily oral 25 milligrams VIOXX, first week of use) | frequency of migraine attacks [1, 3] | intensity of the symptoms of subsequent migraine attacks [1, 3] | frequency and intensity of the migraine attacks ([1]; Example 12, continued daily 12.5-25 milligrams rofecoxib) | migraine symptoms before, during and after the scheduled clinic ([2]; Example 6, glare-induced migraine, oral 12.5 to 25 milligrams VIOXX the night before) | duration of therapeutic benefit ([2]; Example 8, further daily oral 12.5 to 25 milligrams VIOXX after red wine) | migraine symptoms in the period when symptoms would normally be expected ([2]; Example 8, red wine-induced migraine, oral 12.5 to 25 milligrams VIOXX same day as consumption) | migraine attack symptoms ([2]; Example 10, at prodromal symptoms one-time 25-50 milligrams rofecoxib, then 12.5-25 milligrams daily) | period of benefit with continued daily dosing ([2]; Example 10, continued daily 12.5-25 milligrams rofecoxib) | intensity and length of the migraine attack symptoms ([2]; Example 12, 25-50 milligrams rofecoxib at onset of dysphasic aura) |
| --- | --- | --- | --- | --- | --- | --- | --- | --- | --- | --- | --- | --- |
| Cc1ccc(-c2cc(C(F)(F)F)nn2-c2ccc(S(N)(=O)=O)cc2)cc1 [CELEBREX, 4-[5-(4-methylphenyl)-3-(trifluoromethyl)-1H-pyrazol-1-yl]] | reduced intensity | free of migraine symptoms | – | – | – | – | – | – | – | – | – | – |
| CS(=O)(=O)c1ccc(C2=C(c3ccccc3)C(=O)OC2)cc1 [VIOXX, 4-[4-(methylsulfonyl)phenyl]-3-phenyl-2(5H)-furanone] | – | – | free of migraine symptoms | reduced frequency | reduced intensity | substantial decrease in the frequency and intensity | free of migraine symptoms | extended for several days | either free of, or experienced substantially reduced, migraine symptoms | either free of, or has greatly reduced, migraine attack symptoms | several days (or longer) | reduction in the intensity and length |
